Legend:
Arabidopsis seedlings = settings: for effect on number and length of lateral roots: MS with 6 mM N containing 0.15% butanol, OE, WT and KO seedlings, measured 6 days after transfer
Procedure: (A) Four-day-old seedlings were transferred to Murashige and Skoog (MS) containing 6 mM N for 12 days. […] Root length and number were measured 6 days after transfer. Values are means±SD (n=30).
To test N response on plates, surface-sterilized seeds were germinated in MS (1×) agar plates supplement with 3% sucrose for 4 days and then were transferred to modified MS agar plates containing 0.1, 0.6, 2, 6, 60 mM N, NO3^−:NH4^−=2:1). […] Seedlings were grown on plates in a vertical orientation in a growth chamber under the conditions of 16-h light/8-h dark, 23/21° C., cool fluorescent white light (200 mmol m^−2 s^−1). Alternatively, seeds were also directly germinated in agar plates with the same conditions as described above.

S6K = S6K binding to lipids immobilized on a nitrocellulose filter; parameters: species or system Arabidopsis; settings: 10 mg lipid spotted; leaf proteins 1.2 mg/ml; anti-human p70 S6K antibody
Procedure: FIG. 5 depicts S6K levels under different N levels. (A) and (B) S6K protein levels detected by immunoblotting with anti-p70 S6K and anti-phospho-p70 S6K (Thr389) antibodies, respectively. Four-day-old seedlings were transferred to MS plates with the indicated N levels for 10 days. The same amount of proteins ([…]/lane) was separated by 10% SDS-PAGE and transferred to a nitrocellulose membrane. (C) S6K binding to PA immobilized on filter. Lipid (10 mg) was spotted on nitrocellulose filter, and incubated with leaf proteins (1.2 mg/ml), followed by blotting with anti-human p70 S6K antibody. (D) S6K binding to liposomes composed of PA (PA:PC=1:2), PC, or PI only (650 nmol of total lipids). (E) Total S6K, but not phosphorylated S6K binding to PA:PC liposomes. Proteins were extracted from WT and PLDε-altered seedlings. Bound proteins were separated by SDS-PAGE and detected by blotting with anti-human p70 S6K antibody or anti-human p389 p70 S6K antibody.
PLDε: PA-Protein Binding by Blotting and Liposomal Assays. S6K binding to lipids immobilized on a nitrocellulose filter was performed as described (Zhang, W., Qin, C., Zhao, J. & Wang, X. (2004) Proc. Natl. Acad. Sci. USA. 101, 9508-9513; Stevenson, J. M., Perera, I. Y. & Boss, W. F. (1998) J Biol Chem. 273, 22761-22767) with minor modifications. […] Protein binding to liposome was detected by immunoblotting as described above.

Molecule | effect on biomass accumulation (Arabidopsis seedlings; 1-butanol treatment, data not shown) | effect on number and length of lateral roots (Arabidopsis seedlings) | S6K binding to lipid immobilized on filter (S6K)
CCCCO [1-Butanol, 1-butanol] | inhibited | inhibited | 
CCC(C)O (stereo not shown) [2-butanol] |  | no growth inhibitory effect | 
phosphatidic acid [PA] |  |  | bound
